Tests used:
Assay type in all cases: functional
[1] = system: Prevotella disiens; test: Antimicrobial activity in Prevotella disiens by CLSI agar dilution method in presence of Tazobactam
[2] = system: Prevotella baroniae; test: Antimicrobial activity in Prevotella baroniae by CLSI agar dilution method in presence of Tazobactam; conditions: Segatella baroniae
[3] = system: Hoylesella oralis; test: Antimicrobial activity in Prevotella oralis group by CLSI agar dilution method in presence of Tazobactam
[4] = system: Prevotella veroralis; test: Antimicrobial activity in Prevotella veroralis by CLSI agar dilution method in presence of Tazobactam
[5] = system: Prevotella bergensis; test: Antimicrobial activity in Prevotella bergensis by CLSI agar dilution method in presence of Tazobactam; conditions: Hallella bergensis
[6] = system: Prevotella salivae; test: Antimicrobial activity in Prevotella salivae by CLSI agar dilution method in presence of Tazobactam; conditions: Segatella salivae
[7] = system: Hoylesella loescheii; test: Antimicrobial activity in Prevotella loescheii by CLSI agar dilution method in presence of Tazobactam
[8] = system: Prevotella sp.; test: Antimicrobial activity in Prevotella sp.by CLSI agar dilution method in presence of Tazobactam
[9] = system: Porphyromonas asaccharolytica; test: Antimicrobial activity in Porphyromonas asaccharolytica by CLSI agar dilution method in presence of Tazobactam
[10] = system: Fusobacterium nucleatum; test: Antimicrobial activity in Fusobacterium nucleatum by CLSI agar dilution method in presence of Tazobactam
[11] = system: Fusobacterium necrophorum; test: Antimicrobial activity in Fusobacterium necrophorum by CLSI agar dilution method in presence of Tazobactam
[12] = system: Fusobacterium mortiferum; test: Antimicrobial activity in Fusobacterium mortiferum by CLSI agar dilution method in presence of Tazobactam
[13] = system: Fusobacterium varium; test: Antimicrobial activity in Fusobacterium varium by CLSI agar dilution method in presence of Tazobactam
[14] = system: Finegoldia magna; test: Antimicrobial activity in Finegoldia magna by CLSI agar dilution method in presence of Tazobactam
[15] = system: Parvimonas micra; test: Antimicrobial activity in Micromonas micros by CLSI agar dilution method in presence of Tazobactam
[16] = system: Peptostreptococcus anaerobius; test: Antimicrobial activity in Peptostreptococcus anaerobius by CLSI agar dilution method in presence of Tazobactam
[17] = system: Peptoniphilus asaccharolyticus; test: Antimicrobial activity in Peptoniphilus asaccharolyticus by CLSI agar dilution method in presence of Tazobactam
[18] = system: Anaerococcus tetradius; test: Antimicrobial activity in Anaerococcus tetradius by CLSI agar dilution method in presence of Tazobactam
[19] = system: Anaerococcus prevotii; test: Antimicrobial activity in Anaerococcus prevotii by CLSI agar dilution method in presence of Tazobactam
[20] = system: Lactobacillus; test: Antimicrobial activity in Lactobacillus by CLSI agar dilution method in presence of Tazobactam
[21] = system: Bifidobacterium; test: Antimicrobial activity in Bifidobacterium by CLSI agar dilution method in presence of Tazobactam
[22] = system: Cutibacterium acnes; test: Antimicrobial activity in Propionibacterium acnes by CLSI agar dilution method in presence of Tazobactam
[23] = system: Actinomyces; test: Antimicrobial activity in Actinomyces by CLSI agar dilution method in presence of Tazobactam
[24] = system: Eggerthella lenta; test: Antimicrobial activity in Eggerthella lenta by CLSI agar dilution method in presence of Tazobactam
[25] = system: Clostridium perfringens; test: Antimicrobial activity in Clostridium perfringens by CLSI agar dilution method in presence of Tazobactam
[26] = system: Clostridioides difficile; test: Antimicrobial activity in Clostridium difficile by CLSI agar dilution method in presence of Tazobactam
[27] = system: Clostridium sp.; test: Antimicrobial activity in Clostridium sp. by CLSI agar dilution method in presence of Tazobactam
[28] = system: Clostridium tertium; test: Antimicrobial activity in Clostridium tertium by CLSI agar dilution method in presence of Tazobactam
[29] = system: Thomasclavelia ramosa; test: Antimicrobial activity in Clostridium ramosum by CLSI agar dilution method in presence of Tazobactam
[30] = system: Clostridium cadaveris; test: Antimicrobial activity in Clostridium cadaveris by CLSI agar dilution method in presence of Tazobactam
[31] = system: Paraclostridium bifermentans; test: Antimicrobial activity in Clostridium bifermentans by CLSI agar dilution method in presence of Tazobactam
[32] = system: [Clostridium] innocuum; test: Antimicrobial activity in Clostridium innocuum by CLSI agar dilution method in presence of Tazobactam
[33] = system: Paeniclostridium sordellii; test: Antimicrobial activity in Clostridium sordellii by CLSI agar dilution method in presence of Tazobactam; conditions: Paraclostridium sordellii
[34] = system: Clostridium butyricum; test: Antimicrobial activity in Clostridium butyricum by CLSI agar dilution method in presence of Tazobactam
[35] = system: Bacteroides fragilis; test: Antimicrobial activity in Bacteroides fragilis by CLSI agar dilution method in presence of Tazobactam
[36] = system: Bacteroides thetaiotaomicron; test: Antimicrobial activity in Bacteroides thetaiotaomicron by CLSI agar dilution method in presence of Tazobactam
[37] = system: Bacteroides ovatus; test: Antimicrobial activity in Bacteroides ovatus by CLSI agar dilution method in presence of Tazobactam
[38] = system: Phocaeicola vulgatus; test: Antimicrobial activity in Bacteroides vulgatus by CLSI agar dilution method in presence of Tazobactam
[39] = system: Parabacteroides distasonis; test: Antimicrobial activity in Bacteroides distasonis by CLSI agar dilution method in presence of Tazobactam
[40] = system: Bacteroides uniformis; test: Antimicrobial activity in Bacteroides uniformis by CLSI agar dilution method in presence of Tazobactam
[41] = system: Bacteroides stercoris; test: Antimicrobial activity in Bacteroides stercoris by CLSI agar dilution method in presence of Tazobactam
[42] = system: Prevotella bivia; test: Antimicrobial activity in Prevotella bivia by CLSI agar dilution method in presence of Tazobactam
[43] = system: Prevotella buccae; test: Antimicrobial activity in Prevotella buccae by CLSI agar dilution method in presence of Tazobactam; conditions: Segatella buccae
[44] = system: Prevotella melaninogenica; test: Antimicrobial activity in Prevotella melaninogenica by CLSI agar dilution method in presence of Tazobactam
[45] = system: Prevotella denticola; test: Antimicrobial activity in Prevotella denticola by CLSI agar dilution method in presence of Tazobactam
[46] = system: Prevotella intermedia; test: Antimicrobial activity in Prevotella intermedia by CLSI agar dilution method in presence of Tazobactam
[47] = system: Prevotella nigrescens; test: Antimicrobial activity in Prevotella nigrescens by CLSI agar dilution method in presence of Tazobactam
[48] = system: Prevotella corporis; test: Antimicrobial activity in Prevotella corporis by CLSI agar dilution method in presence of Tazobactam
[49] = system: Enterocloster clostridioformis; test: Antimicrobial activity in Clostridium clostridioforme by CLSI agar dilution method in presence of Tazobactam
[50] = system: Tissierella praeacuta; test: Antimicrobial activity in Clostridium hastiforme by CLSI agar dilution method in presence of Tazobactam
[51] = system: Porphyromonas gingivalis; test: Antimicrobial activity in Porphyromonas gingivalis by CLSI agar dilution method in presence of Tazobactam

Q: Which MIC [1] does the source give for CCN1CCN(C(=O)N[C@@H](C(=O)N[C@@H]2C(=O)N3[C@@H]2SC(C)(C)[C@@H]3C(=O)O)c2ccccc2)C(=O)C1=O [PIPERACILLIN] here?
A: ≤ 0.125 µg/mL

Q: What about the MIC50 [1] of the same compound?
A: ≤ 0.125 µg/mL

Q: And the MIC [2]?
A: ≤ 0.125 µg/mL

Q: What about the MIC [3] of the same compound?
A: ≤ 0.125 µg/mL

Q: And the MIC [4]?
A: ≤ 0.125 µg/mL

Q: What about the MIC [5] of the same compound?
A: ≤ 0.125 µg/mL

Q: And the MIC [6]?
A: ≤ 0.125 µg/mL

Q: What about the MIC [7] of the same compound?
A: ≤ 0.125 µg/mL

Q: And the MIC [8]?
A: ≤ 0.125 µg/mL

Q: And the MIC [9]?
A: ≤ 0.125 µg/mL

Q: What about the MIC [10] of the same compound?
A: ≤ 0.125 µg/mL

Q: And the MIC50 [10]?
A: ≤ 0.125 µg/mL

Q: What about the MIC90 [10] of the same compound?
A: ≤ 0.125 µg/mL

Q: And the MIC [11]?
A: ≤ 0.125 µg/mL

Q: And the MIC50 [11]?
A: ≤ 0.125 µg/mL

Q: What about the MIC [12] of the same compound?
A: 0.25 µg/mL

Q: And the MIC50 [12]?
A: 0.25 µg/mL

Q: What about the MIC90 [12] of the same compound?
A: 1 µg/mL

Q: And the MIC50 [13]?
A: 4 µg/mL

Q: And the MIC90 [13]?
A: 8 µg/mL

Q: What about the MIC [14] of the same compound?
A: ≤ 0.125 µg/mL

Q: And the MIC50 [14]?
A: ≤ 0.125 µg/mL

Q: What about the MIC90 [14] of the same compound?
A: 0.25 µg/mL

Q: What about the MIC [15] of the same compound?
A: ≤ 0.125 µg/mL

Q: What about the MIC50 [15] of the same compound?
A: ≤ 0.125 µg/mL

Q: And the MIC90 [15]?
A: ≤ 0.125 µg/mL

Q: What about the MIC [16] of the same compound?
A: 0.25 µg/mL

Q: What about the MIC50 [16] of the same compound?
A: 0.25 µg/mL

Q: And the MIC90 [16]?
A: 16 µg/mL

Q: What about the MIC [17] of the same compound?
A: ≤ 0.125 µg/mL

Q: And the MIC50 [17]?
A: ≤ 0.125 µg/mL

Q: And the MIC [18]?
A: ≤ 0.125 µg/mL

Q: What about the MIC50 [18] of the same compound?
A: ≤ 0.125 µg/mL

Q: And the MIC90 [18]?
A: 0.25 µg/mL

Q: And the MIC [19]?
A: ≤ 0.125 µg/mL

Q: And the MIC50 [20]?
A: 2 µg/mL

Q: And the MIC90 [20]?
A: 2 µg/mL

Q: And the MIC [21]?
A: ≤ 0.125 µg/mL

Q: What about the MIC50 [21] of the same compound?
A: ≤ 0.125 µg/mL

Q: What about the MIC90 [21] of the same compound?
A: 0.25 µg/mL

Q: What about the MIC50 [22] of the same compound?
A: 0.25 µg/mL

Q: And the MIC90 [22]?
A: 1 µg/mL

Q: And the MIC [23]?
A: 0.5 µg/mL

Q: And the MIC50 [23]?
A: 1 µg/mL

Q: And the MIC50 [24]?
A: 16 µg/mL

Q: What about the MIC90 [24] of the same compound?
A: 16 µg/mL

Q: What about the MIC [25] of the same compound?
A: ≤ 0.125 µg/mL

Q: And the MIC50 [25]?
A: ≤ 0.125 µg/mL

Q: What about the MIC90 [25] of the same compound?
A: 0.5 µg/mL

Q: What about the MIC [26] of the same compound?
A: 8 µg/mL

Q: What about the MIC50 [26] of the same compound?
A: 8 µg/mL

Q: What about the MIC90 [26] of the same compound?
A: 16 µg/mL

Q: And the MIC50 [27]?
A: 1 µg/mL

Q: And the MIC90 [27]?
A: 2 µg/mL

Q: What about the MIC [28] of the same compound?
A: 4 µg/mL

Q: What about the MIC50 [28] of the same compound?
A: 8 µg/mL

Q: And the MIC [29]?
A: ≤ 0.125 µg/mL

Q: And the MIC [30]?
A: ≤ 0.125 µg/mL

Q: What about the MIC [31] of the same compound?
A: 0.5 µg/mL

Q: And the MIC [32]?
A: ≤ 0.125 µg/mL

Q: And the MIC [33]?
A: ≤ 0.125 µg/mL

Q: And the MIC [34]?
A: 0.5 µg/mL

Q: And the MIC50 [35]?
A: 0.5 µg/mL

Q: What about the MIC90 [35] of the same compound?
A: 2 µg/mL

Q: What about the MIC50 [36] of the same compound?
A: 8 µg/mL

Q: And the MIC90 [36]?
A: 16 µg/mL

Q: And the MIC50 [37]?
A: 2 µg/mL

Q: What about the MIC90 [37] of the same compound?
A: 4 µg/mL

Q: And the MIC50 [38]?
A: 2 µg/mL

Q: What about the MIC90 [38] of the same compound?
A: 16 µg/mL

Q: And the MIC50 [39]?
A: 4 µg/mL

Q: What about the MIC90 [39] of the same compound?
A: 4 µg/mL

Q: And the MIC [40]?
A: 0.5 µg/mL

Q: What about the MIC50 [40] of the same compound?
A: 1 µg/mL

Q: What about the MIC [41] of the same compound?
A: ≤ 0.125 µg/mL

Q: What about the MIC50 [41] of the same compound?
A: 1 µg/mL

Q: And the MIC [42]?
A: ≤ 0.125 µg/mL

Q: What about the MIC50 [42] of the same compound?
A: ≤ 0.125 µg/mL

Q: And the MIC90 [42]?
A: ≤ 0.125 µg/mL

Q: What about the MIC [43] of the same compound?
A: ≤ 0.125 µg/mL

Q: And the MIC50 [43]?
A: ≤ 0.125 µg/mL

Q: What about the MIC90 [43] of the same compound?
A: ≤ 0.125 µg/mL

Q: And the MIC [44]?
A: ≤ 0.125 µg/mL

Q: And the MIC50 [44]?
A: ≤ 0.125 µg/mL

Q: What about the MIC90 [44] of the same compound?
A: ≤ 0.125 µg/mL

Q: What about the MIC [45] of the same compound?
A: ≤ 0.125 µg/mL

Q: What about the MIC50 [45] of the same compound?
A: ≤ 0.125 µg/mL

Q: And the MIC90 [45]?
A: ≤ 0.125 µg/mL

Q: What about the MIC [46] of the same compound?
A: ≤ 0.125 µg/mL

Q: And the MIC50 [46]?
A: ≤ 0.125 µg/mL

Q: What about the MIC90 [46] of the same compound?
A: ≤ 0.125 µg/mL

Q: And the MIC [47]?
A: ≤ 0.125 µg/mL

Q: And the MIC50 [47]?
A: ≤ 0.125 µg/mL

Q: And the MIC90 [47]?
A: ≤ 0.125 µg/mL

Q: And the MIC [48]?
A: ≤ 0.125 µg/mL

Q: And the MIC50 [48]?
A: ≤ 0.125 µg/mL

Q: What about the MIC [49] of the same compound?
A: 8 µg/mL

Q: What about the MIC [50] of the same compound?
A: 2 µg/mL

Q: And the MIC [51]?
A: ≤ 0.125 µg/mL

Reference: ChEMBL document CHEMBL1649156, “Antianaerobic activity of sulopenem compared to six other agents” (2009)
